Measurements taken from US10464947B2 (Incyte Corporation, priority 2013, dated 2019).
Structures can show the parent of a compound that is named as a salt.

Test system: KMS.12.BM cells
Assay: KMS.12.BM Cell Viability Assay (Example B1)
Format: cell-based, human
Conditions: 3 days, Cell Titer-GLO, read-out: KMS cellular IC50
How it was run: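 KMS.12.BM human myeloma cells, 5000 cells/well in RPMI with 10% FBS, exposed to a compound concentration range for 3 days. Viable cells measured by ATP-based Cell Titer-GLO luminescence after 10 min at room temperature.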

| SMILES | IC50 [µM] |
| --- | --- |
| Cc1noc(C)c1-c1cc(C(C)O)c2[nH]c(=O)n3c2c1OC[C@@H]3c1ccccn1 (single isomer, unassigned) [Example 144B] | < 1 |

Same assay, conditions: Homo sapiens, 72 h, 3 days, Cell Titer-GLO, read-out: KMS cellular IC50

| SMILES | IC50 [µM] |
| --- | --- |
| Cc1noc(C)c1-c1cc(C(O)C(C)C)c2[nH]c(=O)n3c2c1OCC3c1ccccn1 (stereo not shown) [Example 264, 7-(3,5-dimethylisoxazol-4-yl)-9-(1-hydroxy-2-methylpropyl)-4-pyridin-2-yl-4,5-dihydroimidazo[1,5,4-de][1,4]benzoxazin-2(1H)-one] | < 1 |
| Cc1noc(C)c1-c1ccc2nc(N3CCNCC3)n3c2c1OC[C@@H]3c1ccccn1 [Example 150, (4S)-7-(3,5-Dimethylisoxazol-4-yl)-2-piperazin-1-yl-4-pyridin-2-yl-4,5-dihydroimidazo[1,5,4-de][1,4]benzoxazine trihydrochloride] | < 1 |
| Cc1noc(C)c1-c1cc(CNC(C)C)c2[nH]c(=O)n3c2c1OCC3c1ccccn1 (stereo not shown) [Example 253, 7-(3,5-Dimethylisoxazol-4-yl)-9-[(isopropylamino)methyl]-4-pyridin-2-yl-4,5-dihydroimidazo[1,5,4-de][1,4]benzoxazin-2(1H)-one] | 1 to 10 |
| CCNC(=O)[C@@H]1CCN(c2nc3ccc(-c4c(C)noc4C)c4c3n2[C@@H](c2ccccn2)CO4)C1 [Example 250, (3R)-1-[(4S)-7-(3,5-dimethylisoxazol-4-yl)-4-pyridin-2-yl-4,5-dihydroimidazo[1,5,4-de][1,4]benzoxazin-2-yl]-N-ethylpyrrolidine-3-carboxamide] | < 1 |
| Cc1noc(C)c1-c1ccc2nc(N3CC[C@@H](NC(=O)C4CCOCC4)C3)n3c2c1OC[C@@H]3c1ccccn1 [Example 213, N-{(3R)-1-[(4S)-7-(3,5-dimethylisoxazol-4-yl)-4-pyridin-2-yl-4,5-dihydroimidazo[1,5,4-de][1,4]benzoxazin-2-yl]pyrrolidin-3-yl}tetrahydro-2H-pyran-4-carboxamide] | < 1 |
| Cc1noc(C)c1-c1ccc2nc(C3=CCN(C(=O)OC(C)(C)C)CC3)n3c2c1OC[C@@H]3c1ccccn1 [Example 97, tert-Butyl 4-[(4S)-7-(3,5-dimethylisoxazol-4-yl)-4-pyridin-2-yl-4,5-dihydroimidazo[1,5,4-de][1,4]benzoxazin-2-yl]-3,6-dihydropyridine-1 (2H)-carboxylate] | < 1 |
| Cc1noc(C)c1-c1cc(C)c2[nH]c(=O)n3c2c1OCC3c1ccccc1 (stereo not shown) [Example 46, 7-(3,5-Dimethylisoxazol-4-yl)-9-methyl-4-phenyl-4,5-dihydroimidazo[1,5,4-de][1,4]benzoxazin-2(1H)-one] | < 1 |
| Cc1noc(C)c1-c1ccc2nc(C)n3c2c1OC[C@@H]3c1ccccn1 [Example 154, 7-(3,5-Dimethylisoxazol-4-yl)-2-methyl-4-pyridin-2-yl-4,5-dihydroimidazo[1,5,4-de][1,4]benzoxazine] | < 1 |
| COn1c(=O)n2c3c(c(-c4c(C)noc4C)ccc31)CCC2c1ccccn1 (stereo not shown) [Example 122, 7-(3,5-Dimethylisoxazol-4-yl)-1-methoxy-4-pyridin-2-yl-5,6-dihydro-4H-imidazo[4,5,1-ij]quinolin-2(1H)-one trifluoroacetate] | < 1 |
| Cc1noc(C)c1-c1ccc2[nH]c(=O)n3c2c1OCC3C1CCCCC1 (stereo not shown) [Example 17, 4-Cyclohexyl-7-(3,5-dimethylisoxazol-4-yl)-4,5-dihydroimidazo[1,5,4-de][1,4]benzoxazin-2(1H)-one] | < 1 |
| CCS(=O)(=O)NC1CN(c2nc3ccc(-c4c(C)noc4C)c4c3n2[C@@H](c2ccccn2)CO4)C1 [Example 238, N-{1-[(4S)-7-(3,5-dimethylisoxazol-4-yl)-4-pyridin-2-yl-4,5-dihydroimidazo[1,5,4-de][1,4]benzoxazin-2-yl]azetidin-3-yl}ethanesulfonamide] | < 1 |
| COCC(=O)NC1CN(c2nc3ccc(-c4c(C)noc4C)c4c3n2[C@@H](c2ccccn2)CO4)C1 [Example 234, N-{1-[(4S)-7-(3,5-dimethylisoxazol-4-yl)-4-pyridin-2-yl-4,5-dihydroimidazo[1,5,4-de][1,4]benzoxazin-2-yl]azetidin-3-yl}-2-methoxyacetamide] | < 1 |
| Cc1noc(C)c1-c1ccc2nc(N3CC(N)C3)n3c2c1OC[C@@H]3c1ccccn1 [Example 230, 1-[(4S)-7-(3,5-dimethylisoxazol-4-yl)-4-pyridin-2-yl-4,5-dihydroimidazo[1,5,4-de][1,4]benzoxazin-2-yl]azetidin-3-amine trihydrochloride] | < 1 |
| C=Cc1nc2ccc(-c3c(C)noc3C)c3c2n1[C@@H](c1ccccn1)CO3 [Example 88, (4S)-7-(3,5-Dimethylisoxazol-4-yl)-4-pyridin-2-yl-2-vinyl-4,5-dihydroimidazo[1,5,4-de][1,4]benzoxazine] | < 1 |
| Cc1noc(C)c1-c1ccc2nc(N3CCN(CC(N)=O)CC3)n3c2c1OC[C@@H]3c1ccccn1 [Example 191, 2-{4-[(4S)-7-(3,5-dimethylisoxazol-4-yl)-4-pyridin-2-yl-4,5-dihydroimidazo[1,5,4-de][1,4]benzoxazin-2-yl]piperazin-1-yl}acetamide] | < 1 |
| COC(=O)N[C@@H]1CCN(c2nc3ccc(-c4c(C)noc4C)c4c3n2[C@@H](c2ccccn2)CO4)C1 [Example 155, Methyl {(3R)-1-[(4S)-7-(3,5-dimethylisoxazol-4-yl)-4-pyridin-2-yl-4,5-dihydroimidazo[1,5,4-de][1,4]benzoxazin-2-yl]pyrrolidin-3-yl}carbamate] | < 1 |
| Cc1noc(C)c1-c1ccc2nc(N3CC[C@@H](N(C)C(=O)CC#N)C3)n3c2c1OC[C@@H]3c1ccccn1 [Example 152, 2-Cyano-N-{(3R)-1-[(4S)-7-(3,5-dimethylisoxazol-4-yl)-4-pyridin-2-yl-4,5-dihydroimidazo[1,5,4-de][1,4]benzoxazin-2-yl]pyrrolidin-3-yl}-N-methylacetamide] | < 1 |
| Cc1noc(C)c1-c1ccc2nc(C3CCN(S(C)(=O)=O)CC3)n3c2c1OC[C@@H]3c1ccccn1 [Example 112, (4S)-7-(3,5-dimethylisoxazol-4-yl)-2-[1-(methylsulfonyl)piperidin-4-yl]-4-pyridin-2-yl-4,5-dihydroimidazo[1,5,4-de][1,4]benzoxazine] | < 1 |
| CC(=O)NC1CN(c2nc3ccc(-c4c(C)noc4C)c4c3n2[C@@H](c2ccccn2)CO4)C1 [Example 231, N-{1-[(4S)-7-(3,5-dimethylisoxazol-4-yl)-4-pyridin-2-yl-4,5-dihydroimidazo[1,5,4-de][1,4]benzoxazin-2-yl]azetidin-3-yl}acetamide] | < 1 |
| Cc1noc(C)c1-c1ccc2nc(N3CCN(S(N)(=O)=O)CC3)n3c2c1OC[C@@H]3c1ccccn1 [Example 229, 4-[(4S)-7-(3,5-dimethylisoxazol-4-yl)-4-pyridin-2-yl-4,5-dihydroimidazo[1,5,4-de][1,4]benzoxazin-2-yl]piperazine-1-sulfonamide] | < 1 |
| Cc1noc(C)c1-c1ccc2[nH]c(=O)n3c2c1OCC3c1ccccc1OCC(=O)N(C)C (stereo not shown) [Example 51, 2-{2-[7-(3,5-Dimethylisoxazol-4-yl)-2-oxo-1,2,4,5-tetrahydroimidazo[1,5,4-de][1,4]benzoxazin-4-yl]phenoxy}-N,N-dimethylacetamide] | < 1 |
| Cc1noc(C)c1-c1ccc2nc(N3CCC(N(C)C)CC3)n3c2c1OC[C@@H]3c1ccccn1 [Example 171, 1-[(4S)-7-(3,5-dimethylisoxazol-4-yl)-4-pyridin-2-yl-4,5-dihydroimidazo[1,5,4-de][1,4]benzoxazin-2-yl]-N,N-dimethylpiperidin-4-amine] | < 1 |
| CC(=O)NCc1ncccc1C1COc2c(-c3c(C)noc3C)ccc3[nH]c(=O)n1c23 (stereo not shown) [Example 131, N-({3-[7-(3,5-Dimethylisoxazol-4-yl)-2-oxo-1,2,4,5-tetrahydroimidazo[1,5,4-de][1,4]benzoxazin-4-yl]pyridin-2-yl}methyl)acetamide] | < 1 |
| Cc1noc(C)c1-c1ccc2nc(N3CC[C@@H](NS(=O)(=O)C(C)C)C3)n3c2c1OC[C@@H]3c1ccccn1 [Example 217, N-{(3R)-1-[(4S)-7-(3,5-dimethylisoxazol-4-yl)-4-pyridin-2-yl-4,5-dihydroimidazo[1,5,4-de][1,4]benzoxazin-2-yl]pyrrolidin-3-yl}propane-2-sulfonamide] | < 1 |
| Cc1noc(C)c1-c1ccc2nc(N3CCC(NS(C)(=O)=O)CC3)n3c2c1OC[C@@H]3c1ccccn1 [Example 240, N-{1-[(4S)-7-(3,5-dimethylisoxazol-4-yl)-4-pyridin-2-yl-4,5-dihydroimidazo[1,5,4-de][1,4]benzoxazin-2-yl]piperidin-4-yl}methanesulfonamide] | < 1 |
| Cc1noc(C)c1-c1ccc2[nH]c(=O)n3c2c1OC(CO)C3c1ccccn1 (single isomer, unassigned) [Example 62B, 7-(3,5-Dimethylisoxazol-4-yl)-5-(hydroxymethyl)-4-pyridin-2-yl-4,5-dihydroimidazo[1,5,4-de][1,4]benzoxazin-2(1H)-one] | < 1 |

Same assay, conditions: Homo sapiens, KMS-12-BM, 72 h, 3 days, Cell Titer-GLO, read-out: KMS cellular IC50

| SMILES | IC50 [µM] |
| --- | --- |
| Cc1noc(C)c1-c1ccc2c3c1CCC(c1ccccc1)n3c(=O)n2C (racemic) [Example 121, 7-(3,5-Dimethylisoxazol-4-yl)-1-methyl-4-phenyl-5,6-dihydro-4H-imidazo[4,5,1-ij]quinolin-2(1H)-one] | < 1 |
| Cc1noc(C)c1-c1ccc2nc(N3CCC(C)(O)C3)n3c2c1OC[C@@H]3c1ccccn1 (single isomer, unassigned) [Example 146A] | < 1 |
| Cc1noc(C)c1-c1ccc2[nH]c(=O)n3c2c1OCC3C1CCCCN1 (single isomer, unassigned) [Example 63A, 7-(3,5-Dimethylisoxazol-4-yl)-4-piperidin-2-yl-4,5-dihydroimidazo[1,5,4-de][1,4]benzoxazin-2(1H)-one 2,2,2-trifluoroacetate] | 1 to 10 |
| Cc1noc(C)c1-c1ccc2[nH]c(=O)n3c2c1OC(C)(C)C3c1ccccn1 (single isomer, unassigned) [Example 61A, 7-(3,5-Dimethylisoxazol-4-yl)-5,5-dimethyl-4-pyridin-2-yl-4,5-dihydroimidazo[1,5,4-de][1,4]benzoxazin-2(1H)-one] | < 1 |
